Structures can show the parent of a compound that is named as a salt. Values belong to the molecule of their own block, whether it stands above or below them.
How the values were obtained:
[1] = tested on: five human-derived gastric cancer cell lines (AGS, SNU-668, SNU-216, SNU-484, and SNU-638); assay: MTT assay, oxaliplatin experiment, summary over the cell lines; assay type: cell-based; details: 5 days, oxaliplatin with or without 1 μM hydrochloride compound of Formula 1
Description: (§1) Oxaliplatin (M.W. 397.29) was obtained from Sigma Aldrich.

AGS [2] = assay: MTT assay, oxaliplatin with or without hydrochloride compound of Formula 1; assay type: cell-based, human; details: 5 days, oxaliplatin alone or with 1 μM hydrochloride compound of Formula 1
Description: as §1

SNU-668 [3] = assay: as above; assay type: cell-based, human; details: 5 days, oxaliplatin alone or with 1 μM hydrochloride compound of Formula 1
Description: as §1

SNU-638 [4] = assay: as above; assay type: cell-based, human; details: 5 days, oxaliplatin alone or with 1 μM hydrochloride compound of Formula 1
Description: as §1

SNU-484 [5] = assay: as above; assay type: cell-based, human; details: 5 days, oxaliplatin alone or with 1 μM hydrochloride compound of Formula 1
Description: as §1

[6] = tested on: MKN45 human gastric cancer xenograft; assay: subcutaneous MKN45 human gastric cancer xenograft model, tumor volume; details: for Tumor volume (Mean ± SEM): Formula 1 HCl 2 mg/kg p.o. QD, irinotecan 5 mg/kg i.v. QW
[7] = tested on: five human-derived gastric cancer cell lines (AGS, SNU-668, SNU-216, SNU-484, and SNU-638); assay: MTT assay, irinotecan experiment, summary over the five cell lines; details: 5 days, irinotecan with or without 1 μM hydrochloride compound of Formula 1
SNU-484 [8] = assay: MTT assay, irinotecan with or without hydrochloride compound of Formula 1; assay type: cell-based; details: Homo sapiens, 120 h, 5 days, irinotecan alone or with 1 μM hydrochloride compound of Formula 1
AGS [9] = assay: as above; assay type: cell-based; details: Homo sapiens, 120 h, 5 days, irinotecan alone or with 1 μM hydrochloride compound of Formula 1
SNU-638 [10] = assay: as above; assay type: cell-based; details: Homo sapiens, 120 h, 5 days, irinotecan alone or with 1 μM hydrochloride compound of Formula 1
SNU-668 [11] = assay: as above; assay type: cell-based; details: Homo sapiens, SNU668, 120 h, 5 days, irinotecan alone or with 1 μM hydrochloride compound of Formula 1
SNU-216 = assay: as above; assay type: cell-based; details: Homo sapiens, 120 h, 5 days, irinotecan alone or with 1 μM hydrochloride compound of Formula 1

Compound: O=C1[O][Pt-2]2([NH2+]C3CCCC[C@H]3[NH2+]2)[O]C1=O (stereo partly drawn) [Comparative Example 2, Oxaliplatin]
cell death (cell viability, FIG. 2) [1]: exhibited an effect of cell death | IC50 (AGS [2]): 2380 nM | IC50 (SNU-668 [3]): 11.2 µM | IC50 (SNU-638 [4]): 30.3 µM | IC50 (SNU-484 [5]): 10.4 µM

Compound: O=C(c1cc(Cc2n[nH]c(=O)c3ccccc23)ccc1F)N1CC(CNC2CC2)C1 [Comparative Example 4, 4-[3-(3-[(cyclopropylamino)methyl]azetidine-1-carbonyl)-4-fluorobenzyl]phthalazine-1 (2H)-on]
Tumor volume (Mean ± SEM) ([6]; 0 day (grouping date), MKN45 xenograft mice): 156.60 mm^3 | Tumor volume (Mean ± SEM) ([6]; 3rd day, MKN45 xenograft mice): 190.75 mm^3 | Tumor volume (Mean ± SEM) ([6]; 7th day, MKN45 xenograft mice): 272.69 mm^3 | Tumor volume (Mean ± SEM) ([6]; 10th day, MKN45 xenograft mice): 359.75 mm^3 | Tumor volume (Mean ± SEM) ([6]; 14th day, MKN45 xenograft mice): 461.91 mm^3 | Tumor volume (Mean ± SEM) ([6]; 17th day, MKN45 xenograft mice): 588.26 mm^3 | Tumor growth inhibition (TGI) ([6]; 21st day, Formula 1 HCl 2 mg/kg QD, irinotecan 5 mg/kg QW): 19.69% | Tumor size on 21st day (Mean ± SEM) ([6]; 21st day, MKN45 xenograft mice, Formula 1 HCl 2 mg/kg QD, irinotecan 5 mg/kg QW): 727.36 ± 69.46 mm^3 | Tumor volume (Mean ± SEM) ([6]; 21st day, MKN45 xenograft mice): 727.36 mm^3 | T/C ([6]; 21st day, treatment vs vehicle control tumor volume): 80.31%

IC50 (SNU-484 [8]): 789 nM | IC50 (AGS [9]): 367 nM | IC50 (SNU-638 [10]): 657 nM | IC50 (SNU-668 [11]): 4.3 µM | IC50 (SNU-216): 2010 nM
Compound: CCc1c2c(nc3ccc(OC(=O)N4CCC(N5CCCCC5)CC4)cc13)-c1cc3c(c(=O)n1C2)COC(=O)[C@]3(O)CC [Comparative Example 1, Irinotecan hydrochloride]
cell death (cell viability, FIG. 1) [7]: exhibited an effect of cell death

From US20250120970A1, “PHARMACEUTICAL COMPOSITION INCLUDING PHTHALAZINONE DERIVATIVE FOR CO-ADMINISTRATION WITH ANTICANCER DRUG” (priority 2022, published 2025)
